The text below walks through data of PubChem BioAssay (NCI).

Among the test systems are K-562 leukemia; SNB-19 CNS; SNB-75 CNS; HCC-2998 colon; 786-0 renal; HT29 colon; MOLT-4 leukemia; NCI-H23 lung; PC-3 prostate; DU-145 prostate.
Assay in all cases: inhibition of tumour cell growth, NCI panel, 48 h

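Cells were grown in 96-well plates and exposed to each compound for 48 hours at five concentrations; endpoints were interpolated linearly between bracketing concentrations, or set to the highest concentration if not reached. GI50 = concentration required for 50% inhibition of growth. At the TGI there is no net growth.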

Turning to `COc1cc(C2=C(c3ccccc3)COC2=O)cc(OC)c1OC`, the GI50 was 0.289 µM with K-562 leukemia; 4.42 µM with SNB-19 CNS; > 100 µM with SNB-75 CNS; 1.27 µM in the assay with HCC-2998 colon; 4.3 µM in the assay on 786-0 renal; 3.13 µM with HT29 colon. Moreover, the GI50 was 4.18 µM in the assay on MOLT-4 leukemia, 2.41 µM with NCI-H23 lung, 1.35 µM in the assay on PC-3 prostate and 4.68 µM in the assay with DU-145 prostate. Further, the TGI in the assay with K-562 leukemia was > 100 µM; in the assay with SNB-19 CNS, > 100 µM; in the assay with SNB-75 CNS it was > 100 µM; in the assay with HCC-2998 colon, 5.97 µM; in the assay on 786-0 renal, > 100 µM; in the assay on HT29 colon, 97.5 µM. Moreover, the TGI is > 100 µM in the assay on MOLT-4 leukemia, > 27.7 µM in the assay on NCI-H23 lung, > 100 µM in the assay with PC-3 prostate and > 100 µM with DU-145 prostate.
Regarding `CC/C(=C(/c1ccc(O)cc1)c1ccc(OCCNC)cc1)c1ccccc1`, the GI50 in the assay with K-562 leukemia is 1.86 µM; in the assay with SNB-19 CNS it was 3.12 µM; with SNB-75 CNS, 1.43 µM; in the assay on HCC-2998 colon, 1.9 µM; in the assay with 786-0 renal, 1.64 µM; in the assay with HT29 colon it was 2.02 µM. Moreover, the GI50 in the assay with MOLT-4 leukemia is 2.46 µM; in the assay on NCI-H23 lung, 2.6 µM; in the assay with PC-3 prostate it was 1.95 µM; in the assay with DU-145 prostate it was 2.63 µM. In addition, the TGI in the assay on K-562 leukemia amounted to 4.41 µM; in the assay with SNB-19 CNS, 11.9 µM; in the assay on SNB-75 CNS, 5.24 µM; in the assay with HCC-2998 colon, 3.46 µM; in the assay with 786-0 renal, 3.27 µM; with HT29 colon, 3.83 µM. In addition, the TGI with MOLT-4 leukemia stood at 7.14 µM; with NCI-H23 lung, 7.25 µM; with PC-3 prostate, 5.45 µM; with DU-145 prostate, 6.81 µM.
On to `C=CC(=O)N1CC2(CCN(c3nc(OC4CCN(CCCOC)CC4)nc4c(OCC(F)(F)F)c(-c5c(C)ccc6[nH]ncc56)c(C5CC5)cc34)CC2)C1`, for which the GI50 was 2.07 µM with K-562 leukemia; 6.89 µM in the assay on SNB-19 CNS; 3.83 µM with SNB-75 CNS; 2 µM in the assay on HCC-2998 colon; 4.4 µM in the assay on 786-0 renal; 2.28 µM with HT29 colon. In addition, the GI50 in the assay on MOLT-4 leukemia is 1.67 µM; with PC-3 prostate, 2.61 µM; with DU-145 prostate, 2.9 µM. In addition, the TGI was found to be 5.84 µM with K-562 leukemia; 20.1 µM in the assay with SNB-19 CNS; 16.8 µM in the assay with SNB-75 CNS; 4.64 µM with HCC-2998 colon; 18.2 µM with 786-0 renal; 5.83 µM with HT29 colon. Further, the TGI in the assay with MOLT-4 leukemia amounted to 6.06 µM; with NCI-H23 lung it was 1.95 µM; with PC-3 prostate, 9.86 µM; in the assay with DU-145 prostate, 9.12 µM.
Regarding `CC1=CC(=Nc2ccc(N(CCCl)CCCl)cc2)C=C(C)C1=O`, the GI50 is 1.21 µM in the assay on K-562 leukemia; 2.81 µM in the assay on SNB-19 CNS; 1 µM with SNB-75 CNS; 2.29 µM in the assay with HCC-2998 colon; 0.457 µM with 786-0 renal; 1.11 µM in the assay with HT29 colon. Also, the GI50 is 0.377 µM with MOLT-4 leukemia, 0.768 µM in the assay with NCI-H23 lung, 1.48 µM with PC-3 prostate and 0.374 µM in the assay with DU-145 prostate. The TGI with K-562 leukemia is > 100 µM; in the assay on SNB-19 CNS it was > 65.8 µM; with SNB-75 CNS, 7.87 µM; in the assay with HCC-2998 colon, 9.83 µM; in the assay with 786-0 renal it was 2.39 µM; in the assay with HT29 colon it was 4.59 µM. Further, the TGI was > 25.6 µM in the assay with MOLT-4 leukemia, 4.36 µM with NCI-H23 lung, 7.08 µM in the assay with PC-3 prostate and 4.57 µM with DU-145 prostate.
For `COC(=O)[C@]12CC[C@@H](C)[C@H](C)[C@@H]1C1=CC[C@@H]3[C@@]4(C)C/C(=N\O)[C@H](O)[C@@]5(C)COC(=C45)C[C@@]3(C)[C@]1(C)CC2`, the GI50 in the assay with K-562 leukemia is 3.77 µM; with SNB-19 CNS, 10.5 µM; with SNB-75 CNS it was 3.51 µM; in the assay with HCC-2998 colon, 11.5 µM; in the assay on 786-0 renal, 1.76 µM; in the assay with HT29 colon, 2.88 µM. Moreover, the GI50 was 2.97 µM with MOLT-4 leukemia, 6.89 µM in the assay on NCI-H23 lung, 2.34 µM in the assay on PC-3 prostate and 8.57 µM in the assay with DU-145 prostate. For the same compound, the TGI amounted to 14.9 µM in the assay on K-562 leukemia; 31.5 µM with SNB-19 CNS; 21.4 µM in the assay on SNB-75 CNS; 24.9 µM in the assay on HCC-2998 colon; 3.26 µM in the assay on 786-0 renal; 9.31 µM in the assay with HT29 colon. The TGI worked out at 10.8 µM with MOLT-4 leukemia, 22.3 µM in the assay on NCI-H23 lung, 6.51 µM in the assay with PC-3 prostate and 22.8 µM in the assay with DU-145 prostate.
Consider `COc1cc(C2NC(=O)c3ccccc3N2)ccc1OCCCCCOc1c(OC)cc(C2=NOC(c3cc(OC)c(OC)c(OC)c3)C2)cc1OC` (centres undefined), for which the GI50 is 0.431 µM in the assay with K-562 leukemia; 16.6 µM in the assay on SNB-19 CNS; 19.6 µM in the assay on SNB-75 CNS; 1.14 µM in the assay on HCC-2998 colon; 27.4 µM in the assay with 786-0 renal; > 100 µM in the assay with HT29 colon. Also, the GI50 in the assay with MOLT-4 leukemia is 0.57 µM; in the assay with NCI-H23 lung it was 0.484 µM; with PC-3 prostate, 4.62 µM; in the assay with DU-145 prostate, 22.5 µM. The TGI in the assay on K-562 leukemia is > 100 µM; in the assay with SNB-19 CNS, > 88.8 µM; in the assay with SNB-75 CNS it was > 100 µM; in the assay on HCC-2998 colon, 37.8 µM; with 786-0 renal, > 78.7 µM; with HT29 colon, > 100 µM. The TGI in the assay with MOLT-4 leukemia was > 100 µM; in the assay with NCI-H23 lung, > 80 µM; with PC-3 prostate, > 66.5 µM; in the assay with DU-145 prostate, > 82.7 µM.
As for `CC[CH2][Sn]([CH2]CC)([O]C(=O)c1cccnc1SC)[O][Sn]([CH2]CC)([CH2]CC)[O]C(=O)c1cccnc1SC`, the GI50 is 0.0756 µM in the assay with K-562 leukemia; 0.83 µM in the assay on SNB-19 CNS; 0.584 µM in the assay on SNB-75 CNS; 0.642 µM in the assay on HCC-2998 colon; 0.313 µM with 786-0 renal; 1.1 µM with HT29 colon. Also, the GI50 in the assay on MOLT-4 leukemia was 0.149 µM; in the assay on NCI-H23 lung, 0.218 µM; in the assay with PC-3 prostate, 2.3 µM; in the assay on DU-145 prostate, 2.37 µM. For the same compound, the TGI in the assay with K-562 leukemia was 4.32 µM; in the assay on SNB-19 CNS, 2.22 µM; in the assay with SNB-75 CNS it was 1.97 µM; with HCC-2998 colon it was 1.92 µM; in the assay on 786-0 renal it was 0.675 µM; with HT29 colon, 3.33 µM. For the same compound, the TGI in the assay on MOLT-4 leukemia is > 16.6 µM; in the assay on NCI-H23 lung, 0.801 µM; in the assay with PC-3 prostate, 6.48 µM; in the assay on DU-145 prostate it was 7.11 µM.
